We go through 3 molecules from PMC9295122, “Sialic Acid Derivatives Inhibit SiaT Transporters and Delay Bacterial Growth” (ACS Chemical Biology, 2022).

One data set addresses T1, PmSiaT (Proteus mirabilis, UniProt B4EZY7).
T1 construct: made in house
T1 sequence (B4EZY7 1-496): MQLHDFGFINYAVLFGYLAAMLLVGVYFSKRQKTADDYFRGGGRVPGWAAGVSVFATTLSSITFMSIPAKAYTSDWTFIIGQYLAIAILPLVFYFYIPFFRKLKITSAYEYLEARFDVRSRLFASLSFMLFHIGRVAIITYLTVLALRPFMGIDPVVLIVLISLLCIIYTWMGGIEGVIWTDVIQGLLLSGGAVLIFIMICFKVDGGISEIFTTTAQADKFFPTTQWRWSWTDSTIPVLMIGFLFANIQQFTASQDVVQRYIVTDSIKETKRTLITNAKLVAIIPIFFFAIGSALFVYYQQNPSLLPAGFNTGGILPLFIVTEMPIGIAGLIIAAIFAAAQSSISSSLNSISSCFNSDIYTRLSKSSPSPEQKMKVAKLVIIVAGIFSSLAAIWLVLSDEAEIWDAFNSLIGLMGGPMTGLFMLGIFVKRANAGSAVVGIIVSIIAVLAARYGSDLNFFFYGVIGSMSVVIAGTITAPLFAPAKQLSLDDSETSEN
The data set is described as follows: nanoDSF thermal shift assay, PmSiaT. It counts as binding. The conditions noted are these: for Average 1 / Average 2 / Average 3 / Replicate 1 / Replicate 2 / Replicate 3: PmSiaT Tm; for Average 1: average of experiment 1; for Average 2: average of experiment 2; for Average 3: average of experiment 3; for Replicate 1: experiment 1, second capillary; for Replicate 1 / Replicate 2 / Replicate 3 / Tm 1 / Tm2 / Tm 3 / Tm average overall: 1.25 mM; for Replicate 2: experiment 2, second capillary; for Replicate 3: experiment 3, second capillary; for Tm 1 / Tm2 / Tm 3 / Tm average overall: PmSiaT; for Tm 1: experiment 1, first capillary; for Tm2: experiment 2, first capillary; for Tm 3: experiment 3, first capillary; for Tm average overall: three experiments. Summed up: (§1)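 Protein at 2 μM in PBS with 0.0174% (w/v) DDM and ligand at 1.25 mM were heated from 25 to 95 °C at 1 °C/min, with 330/350 nm fluorescence ratio and its first derivative giving Tm. ΔTm is relative to the Neu5Ac Tm, averaged over 3 experiments with 2 capillaries each.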

For a further data set, the target named is SaSiaT (Staphylococcus aureus, UniProt A0A0H2XJ46). The data set is described as follows: nanoDSF thermal shift assay, SaSiaT. The format is binding. The conditions noted are these: for Average 1 / Average 2 / Average 3 / Replicate 1 / Replicate 2 / Replicate 3: SaSiaT Tm; for Average 1: average of experiment 1; for Average 2: average of experiment 2; for Average 3: average of experiment 3; for Replicate 1: experiment 1, second capillary; for Replicate 1 / Replicate 2 / Replicate 3 / Tm 1 / Tm2 / Tm 3 / Overall average (Tm): 1.25 mM; for Replicate 2: experiment 2, second capillary; for Replicate 3: experiment 3, second capillary; for Tm 1 / Tm2 / Tm 3 / Overall average (Tm): SaSiaT; for Tm 1: experiment 1, first capillary; for Tm2: experiment 2, first capillary; for Tm 3: experiment 3, first capillary; for Overall average (Tm): three experiments. Summed up:
as §1

Substrate in data set [1]: CC(=O)N[C@H]1[C@H]([C@H](O)[C@H](O)CO)OC(O)(C(=O)O)C[C@@H]1O
The data set is described as follows: cells, lysate or membranes named. The conditions noted are these: other: Neu5Ac transport by SaSiaT in proteoliposomes; pH 7.0; 25.0 °C.

For the molecule `CC(=O)N[C@H]1[C@H]([C@H](O)[C@H](O)CO)OC(C(=O)O)=C[C@@H]1O` [Compound 9, 2-deoxy-2,3-didehydro-N-acetylneuraminic acid, reference compound], on PmSiaT, the “Average 1” value stood at 45.9 °C, the “Average 2” value came to 46.2 °C, the “Average 3” value is 46.2 °C and the “Replicate 1” value was found to be 45.7 °C. Further, on PmSiaT, the “Replicate 2” value came out at 46.1 °C, the “Replicate 3” value stood at 46.3 °C, the “Tm 1” value stood at 46.1 °C and the Tm2 came to 46.3 °C. Also, at PmSiaT, the “Tm 3” value came to 46.2 °C and the Tm average overall came to 46.1 °C. Besides, on SaSiaT, the “Average 1” value turned out to be 45.1 °C, the “Average 2” value stood at 45.8 °C, the “Average 3” value is 45.9 °C and the “Replicate 1” value came out at 45.2 °C. Also, on SaSiaT, the “Replicate 2” value stood at 46.4 °C, the “Replicate 3” value was 46.4 °C, the “Tm 1” value stood at 45.0 °C and the “Tm2” value was determined as 45.2 °C. Besides, on SaSiaT, the “Tm 3” value was 45.4 °C and the “Overall average (Tm)” value is 45.6 °C.
In the case of `O=C(CO)N[C@H]1[C@H]([C@H](O)[C@H](O)CO)OC(O)(C(=O)O)C[C@@H]1O` (stereo partly shown) [Neu5Gc, 5-N-glycolyl neuraminic acid, reference compound], at PmSiaT, the “Average 1” value turned out to be 48.0 °C, the “Average 2” value was 48.1 °C, the “Average 3” value was determined as 48.0 °C and the “Replicate 1” value came to 48.0 °C. Further, at PmSiaT, the “Replicate 2” value is 48.0 °C, the “Replicate 3” value amounted to 48.0 °C, the “Tm 1” value stood at 47.9 °C and the Tm2 is 48.1 °C. Moreover, at PmSiaT, the “Tm 3” value was found to be 48.0 °C and the Tm average overall turned out to be 48.0 °C. For the same molecule, the ΔTm at 1250 µM at PmSiaT (read-out: ΔTm average overall) is -1.2 °C. Further, on SaSiaT, the “Average 1” value is 53.3 °C, the “Average 2” value stood at 53.3 °C, the “Average 3” value turned out to be 53.6 °C and the “Replicate 1” value is 53.3 °C. On SaSiaT, the “Replicate 2” value was determined as 53.4 °C, the “Replicate 3” value came out at 53.6 °C, the “Tm 1” value stood at 53.3 °C and the “Tm2” value was found to be 53.2 °C. On SaSiaT, the “Tm 3” value was 53.6 °C and the “Overall average (Tm)” value was 53.4 °C.

B1: SiaT from S. aureus (Staphylococcus aureus subsp. aureus USA300) (protein)
chain: MKEVGFGTLNWVAVIIYLLAMLFIGVYFTKRASQSTNSFFTASGRLPSWVVGFSIYATTLSAITFMSTPEKAFLTDWSYIAGNIAIVAIIPLLIYFYVPFFKKLKVTSAYEYLEARFGPSIRVIGSLLFVVYHLGRVAIVIYLPTLAITSVSDMNPYIVASLVGLLCILYTFLGGFEGVVWSDFIQGVILLGGALVIIILGVVNIKGGFGTVFADAIEHKKLISADNWKLNTAAAAIPIIFLGNIFNNLYQYTASQDVVQRYQASDSLKETNKSLWTNGILALISAPLFYGMGTMLYSFYTHEAVLPKGFNTSSVVPYFILTEMPPFVAGLLIAAIFAAAQSTISSSLNSISACISIDIKQRFFGKGSERHEVNFARFIIIIAGIFGFGMSLYLIASNSNDLWDLFLFVTGLFGVPLAGVFAVGIFTKRTNTFGVICGLILGIIFAYVYNGVGKGNSPFYVSTISFTVAFVFAYILSFIVPSKHKKDITGLTIFEKDKPSTYISKTATKK
With B1, in data set [1], the Michaelis-Menten constant (Km) was 12.2 ± 2.2 µM and the Vmax is on record as 51 ± 9 nmol/mg protein/min.

Broadly, the ΔTm is the change in melting temperature against a reference sample. One may read the Km as the substrate concentration at which the rate is half of its maximum.
